The values below come from PMC12040169 (PLOS Biology, 2025).

Data set [1] deals with T1, CTL2-GFP (C. trachomatis L2/434/Bu, GFP-expressing).
T1 construct: L2/434/Bu, GFP-expressing
Nature of the data set: microbe, parasite or virus in culture. The settings on record: Chlamydia trachomatis, HeLa, 28.5 h; bulk GFP, mean of 2; read-out: % of control remaining. The arrangement: Intracellular C. trachomatis growth in HeLa cells, bulk GFP fluorescence relative to DMSO. As for the experimental part:
MICs were calculated as described above.

A short description of the next data set: in vitro. Set-up: Viability of infected HeLa host cells, resazurin conversion, bulk resorufin fluorescence relative to DMSO. Conditions: human, hela cells; bulk resorufin, mean of 2.
Data set [2] concerns T2, C. trachomatis L2/434/Bu expressing GFP (CTL2-GFP).
T2 construct: L2/434/Bu GFP intracellular growth in HeLa cells
Nature of the data set: microbe, parasite or virus in culture. The settings on record: Chlamydia trachomatis, HeLa, 28.5 h; total inclusion area; read-out: % of control remaining. The arrangement: C. trachomatis total inclusion area by high-content imaging, normalised to DMSO. Put shortly:
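Read-out combines bulk fluorescence and imaging: GFP tracks chlamydial growth, resorufin tracks host cell viability. Plates were then fixed and Hoechst-stained so inclusions and nuclei could be imaged and counted per well.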

One may read the viability as a read-out of living cells in per cent, often relative to untreated cells.

Regarding `O=C(O)c1[nH]c2ccccc2c1C(c1ccsc1)c1c(C(=O)O)[nH]c2ccccc12` [CBK267811], in data set [1], the activity at 1 µM came to 113%, the activity at 5 µM is 109% and the activity at 10 µM stood at 85.2%. In “in vitro”, the viability at 28.5 h, 1 µM is 99.3%; the viability at 28.5 h, 5 µM is 106%; the viability at 28.5 h, 10 µM came to 121%. For the same compound, in data set [2], the activity at 1 µM came to 49.5%, the activity at 5 µM is 80.4% and the activity at 10 µM amounted to 22.6%.

For `Cc1cc(C(=O)Nc2ccc(S(=O)(=O)Nc3onc(C)c3C)cc2)no1` [CBK268166], in data set [1], the activity at 1 µM is 113%, the activity at 5 µM was 81.5% and the activity at 10 µM was 33.7%. Further, in “in vitro”, the viability at 28.5 h, 1 µM is 101%; the viability at 28.5 h, 5 µM worked out at 92.7%; the viability at 28.5 h, 10 µM worked out at 100%. Also, in data set [2], the activity at 1 µM is 89.9%, the activity at 5 µM was determined as 77.7% and the activity at 10 µM was 61.3%.

Turning to `COc1ccc(OC)c(Nc2nc(NCC3CCCO3)c3ccccc3n2)c1` (stereo not drawn) [CBK268403C], in data set [1], the activity at 1 µM turned out to be 127%, the activity at 5 µM was found to be 105% and the activity at 10 µM amounted to 26.6%. In the data set “in vitro”, the viability at 28.5 h, 1 µM was 97.5%; the viability at 28.5 h, 5 µM was determined as 96.9%; the viability at 28.5 h, 10 µM was 99.1%. Also, in data set [2], the activity at 1 µM amounted to 73.4%, the activity at 5 µM was 61% and the activity at 10 µM turned out to be 10.2%.

`CN(C(=O)Cc1ccsc1)c1nc2c(s1)CCc1c-2cnn1C` [CBK281929]: in data set [1], the activity at 1 µM came to 104%, the activity at 5 µM came to 56.8% and the activity at 10 µM was found to be 29.8%. In “in vitro”, the viability at 28.5 h, 1 µM stood at 103%; the viability at 28.5 h, 5 µM was 96%; the viability at 28.5 h, 10 µM is 93.3%. For the same compound, in data set [2], the activity at 1 µM stood at 85.4%, the activity at 5 µM stood at 28.7% and the activity at 10 µM worked out at 14.3%.

As for `COc1ccc2cc3c(nc2c1)OC(=O)N(CC1CC1)C3` [CBK282432], in data set [1], the activity at 1 µM is 92.7%, the activity at 5 µM was 19% and the activity at 10 µM was determined as 0.603%. Also, in the data set “in vitro”, the viability at 28.5 h, 1 µM is 112%; the viability at 28.5 h, 5 µM worked out at 108%; the viability at 28.5 h, 10 µM came out at 110%. For the same compound, in data set [2], the activity at 1 µM amounted to 90.9%, the activity at 5 µM amounted to 15.2% and the activity at 10 µM amounted to 0.584%.

Consider `CCC(CN1CCCC1)NC(=O)Cc1ccc(OC)c(C)c1` (stereo not drawn) [CBK282752], for which, in data set [1], the activity at 1 µM stood at 100%, the activity at 5 µM worked out at 50.3% and the activity at 10 µM is 19.9%. Besides, in “in vitro”, the viability at 28.5 h, 1 µM is 108%; the viability at 28.5 h, 5 µM came to 112%; the viability at 28.5 h, 10 µM amounted to 108%. Moreover, in data set [2], the activity at 1 µM worked out at 108%, the activity at 5 µM was determined as 47.2% and the activity at 10 µM came to 26.1%.

As to `O=C1CC[C@@H](NCc2cccs2)[C@H](c2cc(F)cc(F)c2)N1` [CBK283129], in data set [1], the activity at 1 µM was determined as 98.3%, the activity at 5 µM is 98.8% and the activity at 10 µM worked out at 82.2%. Also, in the data set “in vitro”, the viability at 28.5 h, 1 µM was 112%; the viability at 28.5 h, 5 µM is 109%; the viability at 28.5 h, 10 µM amounted to 110%. In data set [2], the activity at 1 µM is 98.3%, the activity at 5 µM came out at 76.7% and the activity at 10 µM was found to be 78.8%.

In the case of `COc1ccc([C@H]2CN(Cc3ccccc3)[C@@H]3CCN(C(=O)Cc4ccsc4)C[C@H]23)cc1` [CBK285551], in data set [1], the activity at 1 µM amounted to 151%, the activity at 5 µM amounted to 107% and the activity at 10 µM was 36.7%. Moreover, in “in vitro”, the viability at 28.5 h, 1 µM worked out at 89.3%; the viability at 28.5 h, 5 µM was determined as 93.6%; the viability at 28.5 h, 10 µM worked out at 93%. In data set [2], the activity at 1 µM is 148%, the activity at 5 µM was 87.9% and the activity at 10 µM was determined as 48.8%.

Take `COc1ccc(CC(=O)N2CCCC(c3nc(C)c4c(n3)N(CC3CC3)CCC4)C2)cc1` (stereo not drawn) [CBK286228]: in data set [1], the activity at 1 µM is 130%, the activity at 5 µM was 39.3% and the activity at 10 µM is 5.11%. Besides, in “in vitro”, the viability at 28.5 h, 1 µM stood at 102%; the viability at 28.5 h, 5 µM stood at 97.8%; the viability at 28.5 h, 10 µM came to 97%. Also, in data set [2], the activity at 1 µM came to 88.7%, the activity at 5 µM worked out at 46.6% and the activity at 10 µM stood at 3.42%.

Regarding `COc1ccc([C@H]2CN(Cc3ccccc3)[C@@H]3CCN(C(=O)Cc4ccccc4)C[C@H]23)cc1` [CBK286285], in data set [1], the activity at 1 µM worked out at 130%, the activity at 5 µM came out at 111% and the activity at 10 µM stood at 49.2%. Moreover, in “in vitro”, the viability at 28.5 h, 1 µM amounted to 93.8%; the viability at 28.5 h, 5 µM was 97.6%; the viability at 28.5 h, 10 µM was 104%. In addition, in data set [2], the activity at 1 µM is 109%, the activity at 5 µM stood at 95.8% and the activity at 10 µM stood at 41.4%.

Take `CC(C(=O)N1CCC2(CC1)NC(=O)c1ccccc1N2)(c1ccccc1)c1ccccc1` [CBK286308]: in data set [1], the activity at 1 µM was 96.5%, the activity at 5 µM worked out at 59.6% and the activity at 10 µM came to 46.3%. Further, in the data set “in vitro”, the viability at 28.5 h, 1 µM worked out at 97.7%; the viability at 28.5 h, 5 µM came out at 93.1%; the viability at 28.5 h, 10 µM worked out at 101%. Moreover, in data set [2], the activity at 1 µM came to 82.6%, the activity at 5 µM is 44.9% and the activity at 10 µM was 28.3%.

As to `CC(=O)N1CCc2sccc2C1c1ccccc1NCc1ccoc1` (stereo not drawn) [CBK286432], in data set [1], the activity at 1 µM came out at 87.1%, the activity at 5 µM amounted to 34% and the activity at 10 µM is 26.3%. In addition, in the data set “in vitro”, the viability at 28.5 h, 1 µM is 85%; the viability at 28.5 h, 5 µM was determined as 86.8%; the viability at 28.5 h, 10 µM stood at 85.9%. In addition, in data set [2], the activity at 1 µM is 61.5%, the activity at 5 µM was 24.5% and the activity at 10 µM came to 22.5%.

With `CCC(=O)N1CCCc2cc(C(O)CN3CCN(c4ccc(F)cc4)CC3)ccc21` (stereo not drawn) [CBK286480], in data set [1], the activity at 1 µM turned out to be 116%, the activity at 5 µM was found to be 62% and the activity at 10 µM is 10.5%. Moreover, in “in vitro”, the viability at 28.5 h, 1 µM was found to be 93%; the viability at 28.5 h, 5 µM came out at 84%; the viability at 28.5 h, 10 µM worked out at 90.3%. In data set [2], the activity at 1 µM amounted to 104%, the activity at 5 µM came out at 58.2% and the activity at 10 µM was 7.99%.

With `CN1CCN(c2cc3c(cc2F)c(=O)c(C(=O)O)cn3-c2ccc(F)cc2)CC1` [CBK287138], in data set [1], the activity at 1 µM came to 14.6%, the activity at 5 µM turned out to be 5.16% and the activity at 10 µM was 0.93%. In the data set “in vitro”, the viability at 28.5 h, 1 µM stood at 103%; the viability at 28.5 h, 5 µM came out at 102%; the viability at 28.5 h, 10 µM turned out to be 104%. In data set [2], the activity at 1 µM worked out at 11.1%, the activity at 5 µM was 0.783% and the activity at 10 µM turned out to be 0.31%.

For `CCCCC(=O)/N=C(\N)Nc1nc2ccccc2o1` [CBK287937], in data set [1], the activity at 1 µM was found to be 119%, the activity at 5 µM is 117% and the activity at 10 µM was 117%. In addition, in “in vitro”, the viability at 28.5 h, 1 µM turned out to be 106%; the viability at 28.5 h, 5 µM came to 102%; the viability at 28.5 h, 10 µM came out at 100%. In data set [2], the activity at 1 µM was determined as 100%, the activity at 5 µM was 71.1% and the activity at 10 µM is 60.6%.

For the compound `Oc1ccc(Cn2cnc3ccccc32)c2cccnc12` [CBK291202], in data set [1], the activity at 1 µM was determined as 103%, the activity at 5 µM is 47.1% and the activity at 10 µM was found to be 19.3%. Also, in the data set “in vitro”, the viability at 28.5 h, 1 µM turned out to be 105%; the viability at 28.5 h, 5 µM was found to be 104%; the viability at 28.5 h, 10 µM came to 96%. For the same compound, in data set [2], the activity at 1 µM is 116%, the activity at 5 µM is 52.7% and the activity at 10 µM is 24.3%.

For `Cc1ccc(Nc2ncc(C(=O)NCCCN3CCN(c4cccc(Cl)c4)CC3)c3ccccc23)cc1Cl` [CBK291251], in data set [1], the activity at 1 µM was found to be 89.3%, the activity at 5 µM came to 83.3% and the activity at 10 µM is 70.2%. In the data set “in vitro”, the viability at 28.5 h, 1 µM was determined as 106%; the viability at 28.5 h, 5 µM came out at 113%; the viability at 28.5 h, 10 µM came to 99.2%. Moreover, in data set [2], the activity at 1 µM is 93.1%, the activity at 5 µM amounted to 97.7% and the activity at 10 µM is 75.8%.

For `COc1ccc(Br)cc1C1CC(=O)Nc2c(-c3cccc(F)c3)csc21` (stereo not drawn) [CBK294442], in data set [1], the activity at 1 µM turned out to be 132%, the activity at 5 µM turned out to be 65.3% and the activity at 10 µM amounted to 59.3%. Besides, in the data set “in vitro”, the viability at 28.5 h, 1 µM was determined as 96.8%; the viability at 28.5 h, 5 µM is 96.5%; the viability at 28.5 h, 10 µM is 95.7%. In data set [2], the activity at 1 µM is 118%, the activity at 5 µM stood at 29.4% and the activity at 10 µM was found to be 66.4%.

With `C[C@H](NC(=O)Cc1ccc(-c2ccccc2)cc1)c1nc2ccccc2[nH]1` [CBK296998], in data set [1], the activity at 1 µM was determined as 153%, the activity at 5 µM came to 142% and the activity at 10 µM turned out to be 185%. Also, in the data set “in vitro”, the viability at 28.5 h, 1 µM came to 89.7%; the viability at 28.5 h, 5 µM was determined as 97.4%; the viability at 28.5 h, 10 µM was 100%. In data set [2], the activity at 1 µM is 110%, the activity at 5 µM came out at 35.8% and the activity at 10 µM worked out at 30.7%.
